# Test results published in paper PMC12186298, “Phase 1 clinical trial of eneboparatide, a novel PTH receptor 1 agonist” (Endocrine Connections, 2025).
# Read-outs that look alike come from different tables or passages of the source. Peptide text beside a SMILES is read from it.
# Columns and labels:
# Type in all cases: in vivo, human
# [1] = Plasma pharmacokinetics, multiple ascending dose (Part B); details: for AUC(0–∞) / Cmax / Tmax / AUC(0-inf): Part B MAD; for Cmax: LC-MS/MS, mean ± SD
# Protocol: Plasma samples were collected pre-dose and at scheduled time points up to 6 h post-dose on day 1 (Parts A and B) and day 14 (Part B). The analysis of eneboparatide in plasma samples was performed at QPS (The Netherlands) using a hybrid immunoaffinity liquid chromatography–mass spectrometry/mass spectrometry (LC-MS/MS) method, with a validated lower limit of quantification (LLOQ) of 50 pg/mL.
# healthy subjects [2] = assay: Pharmacodynamics (serum calcium, phosphorus, endogenous PTH, urine, bone markers), Part B MAD
# Protocol: Blood samples were taken on day 1 at pre-dose, at several time points post-dose up to day 4 and at FU (Part A), on day 1–14 (pre-dose), and day 15–17 and at FU (Part B) for the analysis of total sCa, albumin-adjusted serum calcium (ADsCa), and sPh. These parameters were also measured on day 1, 7 and 14 at several time points post-dose. Samples for serum creatinine were taken at predefined time points to allow for calculation of fractional excretion of calcium (FECa). Endogenous serum PTH(1–84) was measured on day 1 (pre-dose and 12 h post-dose), day 2–4 and at FU (Part A), on pre-dose on day 1, 7, and 14 and on day 15–17 and FU (Part B). In Part B, additional blood samples were taken on day 1, day 14 and at FU for the analysis of serum bone turnover biomarkers, including carboxy-terminal telopeptide of type I collagen (s-CTx), and procollagen type 1 amino-terminal propeptide (P1NP).
# Urine collection was performed over 24 h for the analysis of calcium and creatinine on day 1–3 and at FU (Part A) and day 1, day 7, day 14 and at FU (Part B). FECa (%) was calculated by the formula: FECa = (urine calcium/serum calcium)/(urine creatinine/serum creatinine).
# healthy subjects [3] = assay: Safety and tolerability, adverse events, Part A SAD
# Protocol: Seven sequential cohorts were included in Part A. The first cohort was single-blind and included four subjects, of which three subjects were randomized to receive 5 μg eneboparatide and one subject was randomized to receive placebo. […] Subjects in Part A were admitted to the phase 1 study centre on day 1 and received the study drug at the clinical site on day 1 as a single, subcutaneous abdominal injection in the morning. They were discharged on day 4 and were asked to return for a follow-up (FU) visit on day 5–8.
smiles,measurement,setting,value
CC[C@H](C)[C@H](NC(=O)[C@H](CCC(=O)O)NC(=O)[C@H](C)NC(=O)[C@@H](NC(=O)[C@H](Cc1c[nH]cn1)NC(=O)[C@@H](NC(=O)[C@H](CCC(=O)O)NC(=O)[C@H](C)NC(=O)[C@@H](NC(=O)[C@H](CC(C)C)NC(=O)[C@H](CCCCN)NC(=O)[C@H](Cc1c[nH]cn1)NC(=O)[C@H](CC(C)C)NC(=O)[C@H](Cc1ccccc1)NC(=O)[C@H](C)NC(=O)[C@H](CCCNC(=N)N)NC(=O)[C@H](CCCNC(=N)N)NC(=O)[C@H](CCCNC(=N)N)NC(=O)[C@H](C)NC(=O)[C@H](CC(=O)O)NC(=O)[C@H](CCC(N)=O)NC(=O)[C@@H](NC(=O)[C@H](Cc1c[nH]c2ccccc12)NC(=O)[C@H](CCCCN)NC(=O)[C@H](C)NC(=O)[C@H](CCCNC(=N)N)NC(=O)[C@H](CCC(N)=O)NC(=O)[C@H](Cc1c[nH]cn1)NC(=O)[C@H](CCSC)NC(=O)[C@H](CC(C)C)NC(=O)[C@H](CCC(N)=O)NC(=O)[C@@H](NC(=O)[C@H](CCC(=O)O)NC(=O)[C@H](C)NC(=O)[C@@H](NC(=O)[C@H](C)N)C(C)C)[C@@H](C)CC)[C@@H](C)CC)[C@@H](C)CC)[C@@H](C)CC)[C@@H](C)O)C(=O)O [eneboparatide] (H-AVAEIQLMHQRAKWIQDARRRAFLHKLIAEIHTAEI-OH; N-terminus and C-terminus assumed),AUC(0–∞),"[1]; 10 μg/day sc, Day 1, n = 4, mean ± SD",3.26 ± 3.20 ng·h/mL
same,Cmax,"[1]; 10 μg/day sc, Day 1, n = 4, plasma",20.6 ± 3.43 ng/mL
same,Cmax,"[1]; 10 μg/day sc, Day 14, n = 4, plasma",18.4 ± 5.37 ng/mL
same,AUC(0–∞),"[1]; 20 μg/day sc, Day 1, n = 8, mean ± SD",7.69 ± 5.52 ng·h/mL
same,Cmax,"[1]; 20 μg/day sc, Day 1, n = 8, plasma",19.6 ± 5.68 ng/mL
same,AUC(0–∞),"[1]; 40 μg/day sc, Day 1, n = 8, mean ± SD",15.8 ± 11.5 ng·h/mL
same,Cmax,"[1]; 40 μg/day sc, Day 1, n = 8, plasma",23.8 ± 8.97 ng/mL
same,Tmax,"[1]; 40 μg/day sc, Day 14, n = 8, median",10.2 min
same,AUC(0–∞),"[1]; 60 μg/day sc, Day 1, n = 8, mean ± SD",43.3 ± 18.1 ng·h/mL
same,Cmax,"[1]; 60 μg/day sc, Day 1, n = 8, plasma",42.9 ± 30.3 ng/mL
same,Tmax,"[1]; 60 μg/day sc, Day 14, n = 7, median",19.8 min
same,AUC(0–∞),"[1]; 80 μg/day sc, Day 1, n = 8, mean ± SD",64.2 ± 56.1 ng·h/mL
same,Cmax,"[1]; 80 μg/day sc, Day 1, n = 8, plasma",124 ± 105 ng/mL
same,accumulation in plasma,"[1]; after 14 consecutive daily administrations, day 14 vs day 1",absence of accumulation
same,Tmax,"[1]; human, plasma, sc, 10 μg/day, 10 μg/day sc, Day 1, n = 4, median, read-out: Tmax",19.8 min
same,Tmax,"[1]; human, plasma, sc, 10 μg/day, 10 μg/day sc, Day 14, n = 4, median, read-out: Tmax",5.4 min
same,Tmax,"[1]; human, plasma, sc, 20 μg/day, 20 μg/day sc, Day 1, n = 8, median, read-out: Tmax",7.8 min
same,Tmax,"[1]; human, plasma, sc, 20 μg/day, 20 μg/day sc, Day 14, n = 7, median, read-out: Tmax",10.2 min
same,Tmax,"[1]; human, plasma, sc, 40 μg/day, 40 μg/day sc, Day 1, n = 8, median, read-out: Tmax",10.2 min
same,Tmax,"[1]; human, plasma, sc, 60 μg/day, 60 μg/day sc, Day 1, n = 8, median, read-out: Tmax",19.8 min
same,Tmax,"[1]; human, plasma, sc, 80 μg/day, 80 μg/day sc, Day 1, n = 8, median, read-out: Tmax",10.2 min
same,Tmax,"[1]; human, plasma, sc, 80 μg/day, 80 μg/day sc, Day 14, n = 8, median, read-out: Tmax",10.8 min
same,AUC(0-inf),"[1]; human, plasma, 10 μg/day sc, Day 14, n = 4, mean ± SD",2.02 ± 2.41 ng·h/mL
same,AUC(0-inf),"[1]; human, plasma, 20 μg/day sc, Day 14, n = 7, mean ± SD",4.63 ± 3.29 ng·h/mL
same,AUC(0-inf),"[1]; human, plasma, 40 μg/day sc, Day 14, n = 8, mean ± SD",12.5 ± 4.75 ng·h/mL
same,AUC(0-inf),"[1]; human, plasma, 60 μg/day sc, Day 14, n = 7, mean ± SD",58.8 ± 30.3 ng·h/mL
same,AUC(0-inf),"[1]; human, plasma, 80 μg/day sc, Day 14, n = 8, mean ± SD",51.9 ± 51.6 ng·h/mL
same,Cmax,"[1]; human, 20 μg/day sc, Day 14, n = 7, plasma, read-out: Cmax",18.3 ± 6.78 ng/mL
same,Cmax,"[1]; human, 40 μg/day sc, Day 14, n = 8, plasma, read-out: Cmax",23.6 ± 5.5 ng/mL
same,Cmax,"[1]; human, 60 μg/day sc, Day 14, n = 7, plasma, read-out: Cmax",44.9 ± 17.9 ng/mL
same,Cmax,"[1]; human, 80 μg/day sc, Day 14, n = 8, plasma, read-out: Cmax",63.5 ± 28.3 ng/mL
same,endogenous sPTH compared to placebo,healthy subjects [2],rapidly and dose-dependently declined
same,time for ADsCa to return to near baseline after cessation of treatment,healthy subjects [2]; 80 μg dose,~3 days
same,subjects with transient hypercalcaemia in whom urinary excretion of calcium remained normal,healthy subjects [2]; 80 μg/d,five of the six
same,mean 24 h-uCa,healthy subjects [2]; 14 days of treatment,not associated with an increase
same,time mean sPh remained lower compared to placebo,"healthy subjects [2]; after 14 days of treatment, high-dose groups (above 40 μg/day)",12 to 20 h
same,FECa,healthy subjects [2]; all doses,below 1.5%
same,repeated sCa measurements throughout 24 h post-dosing,"healthy subjects [2]; days 7 and 14, all doses",stable values with little variation
same,time for ADsCa to return to near baseline after cessation of treatment,healthy subjects [2]; doses up to 60 μg,approximately 2 days
same,time to stable ADsCa levels after the first administration,healthy subjects [2]; doses up to 60 μg,approximately 2 days
same,serum levels of P1NP and CTX,healthy subjects [2]; increasing doses for 14 consecutive days,did not alter
same,"vomiting, subjects",healthy subjects [3],none
same,"Catheter site haematoma, subjects with TEAE","healthy subjects [3]; single sc 5 μg, n = 3",0
same,"Decreased appetite, subjects with TEAE","healthy subjects [3]; single sc 5 μg, n = 3",0
same,"Fatigue, subjects with TEAE","healthy subjects [3]; single sc 5 μg, n = 3",0
same,"Headache, subjects with TEAE","healthy subjects [3]; single sc 5 μg, n = 3",1
same,"Injection site erythema, subjects with TEAE","healthy subjects [3]; single sc 5 μg, n = 3",0
same,"Injection site pain, subjects with TEAE","healthy subjects [3]; single sc 5 μg, n = 3",0
same,"Nausea, subjects with TEAE","healthy subjects [3]; single sc 5 μg, n = 3",0
same,"Somnolence, subjects with TEAE","healthy subjects [3]; single sc 5 μg, n = 3",0
same,"Catheter site haematoma, subjects with TEAE","healthy subjects [3]; single sc 10 μg, n = 6",1
same,"Decreased appetite, subjects with TEAE","healthy subjects [3]; single sc 10 μg, n = 6",0
same,"Fatigue, subjects with TEAE","healthy subjects [3]; single sc 10 μg, n = 6",1
same,"Headache, subjects with TEAE","healthy subjects [3]; single sc 10 μg, n = 6",1
